Reference: BindingDB's records for doi:10.1021/acschembio.6b01129 (Promega Biosciences LLC, 2017)
Counter-ions that a name gives are not always drawn.

Biological target: Oplophorus-luciferin 2-monooxygenase catalytic subunit (Oplophorus gracilirostris, UniProt Q9GV45)
Test: NanoLuc Inhibition Assay
Protocol: NanoLuc enzyme was diluted to 0.4 ng/mL in CO2 independent media + 10% FBS to make the detection reagent. A 3× dilution series of each inhibitor was then made in the detection reagent. A "no inhibitor" control was also made for each sample. A total of 50 μL of each inhibitor dilution was mixed with 50 μL of NanoGlo buffer containing 20 μM furimazine (final furimazine concentration is 10 μM, which is atKM), and luminescence was measured. Each sample was normalized to the "no inhibitor" control.

Chain of Oplophorus-luciferin 2-monooxygenase catalytic subunit (Q9GV45 whole entry): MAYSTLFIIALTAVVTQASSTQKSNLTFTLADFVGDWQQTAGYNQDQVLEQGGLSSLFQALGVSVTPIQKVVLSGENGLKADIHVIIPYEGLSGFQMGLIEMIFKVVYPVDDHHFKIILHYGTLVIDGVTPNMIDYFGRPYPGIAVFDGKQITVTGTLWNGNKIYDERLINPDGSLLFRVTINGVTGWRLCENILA

Structure (SMILES)	IC50
CCN(C(=O)Cn1c(C(=O)N[C@H]2CC[C@@H](C(=O)OC)CC2)cc2sccc21)c1cccc(C)c1 [Methyl-cis-4-(4-(2-(ethyl(m-tolyl)amino)-2-oxoethyl)-4H-thieno[3,2-b]pyrrole-5carboxamido)cyclohexane-1-carboxylate (9)]	230 nM
CCN(C(=O)Cn1c(C(=O)NC2CCC(C(=O)NCCCCCCN)CC2)cc2sccc21)c1cccc(C)c1 (stereo not drawn) [N-(trans-4-((6-aminohexyl)carbamoyl)cyclohexyl)-4-(2-(ethyl(m-tolyl)amino)-2-oxoethyl)-4Hthieno[3,2-b]pyrrole-5-carboxamide hydrochloride (40)]	63 nM
CCN(C(=O)Cn1c(C(=O)NC2CCC(C(=O)NCCCCCCO)CC2)cc2sccc21)c1cccc(C)c1 (stereo not drawn) [4-(2-(Ethyl(m-tolyl)amino)-2-oxoethyl)-N-(trans-4-((6-hydroxyhexyl)carbamoyl)cyclohexyl)4H-thieno[3,2-b]pyrrole-5-carboxamide (39)]	30 nM
CCN(C(=O)Cn1c(C(=O)N[C@H]2CC[C@H](C(=O)OC)CC2)cc2ccccc21)c1cccc(C)c1 [Methyl trans-4-(1-(2-(ethyl(m-tolyl)amino)-2-oxoethyl)-1H-indole-2-carboxamido)cyclohexane1-carboxylate (29)]	36 nM
CCN(C(=O)Cn1c(C(=O)N2CCCC2)cc2sccc21)c1cccc(C)c1 [N-ethyl-2-(5-(pyrrolidine-1-carbonyl)-4H-thieno[3,2-b]pyrrol-4-yl)-N-(m-tolyl)acetamide (6)]	1200 nM
CCN(C(=O)Cn1c(C(=O)NC2CCC(C(=O)NCCCC(=O)O)CC2)cc2sccc21)c1cccc(C)c1 (trans isomer) [4-(trans-4-(4-(2-(Ethyl(m-tolyl)amino)-2-oxoethyl)-4H-thieno[3,2-b]pyrrole-5carboxamido)cyclohexane-1-carboxamido)butanoic acid (37)]	890 nM
CCN(C(=O)Cn1c(C(=O)NC2CCC(C(=O)NCCN(C)C)CC2)cc2sccc21)c1cccc(C)c1 (trans isomer) [N-(trans-4-((2-(dimethylamino)ethyl)carbamoyl)cyclohexyl)-4-(2-(ethyl(m-tolyl)amino)-2oxoethyl)-4H-thieno[3,2-b]pyrrole-5-carboxamide (36)]	17800 nM
CCN(C(=O)Cn1c(C(=O)NC2CCC(C(=O)NCCCCCC(=O)O)CC2)cc2sccc21)c1cccc(C)c1 (stereo not drawn) [6-(trans-4-(4-(2-(Ethyl(m-tolyl)amino)-2-oxoethyl)-4H-thieno[3,2-b]pyrrole-5carboxamido)cyclohexane-1-carboxamido)hexanoic acid (41)]	94 nM
COCCOCCN(C(=O)Cn1c(C(=O)NC2CCCCC2)cc2sccc21)c1cccc(C)c1 [N-cyclohexyl-4-(2-((2-(2-methoxyethoxy)ethyl)(m-tolyl)amino)-2-oxoethyl)-4H-thieno[3,2b]pyrrole-5-carboxamide (14)]	16500 nM
CCCCNC(=O)C1CCC(NC(=O)c2cc3sccc3n2CC(=O)N(CC)c2cccc(C)c2)CC1 (stereo not drawn) [N-(trans-4-(butylcarbamoyl)cyclohexyl)-4-(2-(ethyl(m-tolyl)amino)-2-oxoethyl)-4H-thieno[3,2b]pyrrole-5-carboxamide (34)]	300 nM
CCN(C(=O)Cn1c(C(=O)N[C@H]2CC[C@H](C(=O)NCCCCCCNC(=O)[C@H](CC(=O)O)NC(=O)[C@H](CC(=O)O)NC(=O)[C@H](CC(=O)O)NC(C)=O)CC2)cc2sccc21)c1cccc(C)c1 [(11S,14S,17S)-17-Acetamido-11,14-bis(carboxymethyl)-1-(trans-4-(4-(2-(ethyl(m-tolyl)amino)2-oxoethyl)-4H-thieno[3,2-b]pyrrole-5-carboxamido)cyclohexyl)-1,10,13,16-tetraoxo-2,9,12,15tetraazanonadecan-19-oic acid (46)]	66 nM
CCN(C(=O)Cn1c(C(=O)NC2CCC(C(=O)NCCCCCCS(=O)(=O)O)CC2)cc2sccc21)c1cccc(C)c1 (trans isomer) [Sodium 6-(trans-4-(4-(2-(ethyl(m-tolyl)amino)-2-oxoethyl)-4H-thieno[3,2-b]pyrrole-5carboxamido)cyclohexane-1-carboxamido)hexane-1-sulfonate (43)]	71 nM
CCN(C(=O)Cn1cccc1C(=O)N[C@H]1CC[C@H](C(=O)OC)CC1)c1cccc(C)c1 [Methyl trans-4-(1-(2-(ethyl(m-tolyl)amino)-2-oxoethyl)-1H-pyrrole-2carboxamido)cyclohexane-1-carboxylate (28)]	7700 nM
CCN(C(=O)Cn1c(C(=O)NC2CCC(C(=O)NCCCCCCCC(=O)O)CC2)cc2sccc21)c1cccc(C)c1 (stereo not drawn) [8-(trans-4-(4-(2-(Ethyl(m-tolyl)amino)-2-oxoethyl)-4H-thieno[3,2-b]pyrrole-5carboxamido)cyclohexane-1-carboxamido)octanoic acid (42)]	31 nM
CCN(C(=O)Cn1c(C(=O)Nc2cccc(C(=O)OC)c2)cc2sccc21)c1cccc(C)c1 [Methyl 3-(4-(2-(ethyl(m-tolyl)amino)-2-oxoethyl)-4H-thieno[3,2-b]pyrrole-5carboxamido)benzoate (11)]	10700 nM
CCN(C(=O)Cn1c(C(=O)N[C@H]2CC[C@H](C(=O)OC)CC2)cc2sccc21)c1cccc(C(N)=O)c1 [Methyl trans-4-(4-(2-((3-carbamoylphenyl)(ethyl)amino)-2-oxoethyl)-4H-thieno[3,2-b]pyrrole5-carboxamido)cyclohexane-1-carboxylate (27)]	240 nM
CCN(C(=O)Cn1c(C(=O)N[C@H]2CC[C@H](C(=O)OC)CC2)cc2occc21)c1cccc(C)c1 [Methyl trans-4-(4-(2-(ethyl(m-tolyl)amino)-2-oxoethyl)-4H-furo[3,2-b]pyrrole-5carboxamido)cyclohexane-1-carboxylate (31)]	590 nM
Cc1cccc(NC(=O)Cn2c(C(=O)NC3CCCCC3)cc3sccc32)c1 [N-cyclohexyl-4-(2-oxo-2-(m-tolylamino)ethyl)-4H-thieno[3,2-b]pyrrole-5-carboxamide (13)]	45200 nM
CCN(C(=O)Cn1c(C(=O)N2CCCCC2)cc2sccc21)c1cccc(C)c1 [N-ethyl-2-(5-(piperidine-1-carbonyl)-4H-thieno[3,2-b]pyrrol-4-yl)-N-(m-tolyl)acetamide (7)]	2600 nM
CCN(C(=O)Cn1c(C(=O)N[C@H]2CC[C@H](C(=O)OC)CC2)cc2sccc21)c1cccc(C)c1 [trans-Methyl-4-(4-(2-(ethyl(m-tolyl)amino)-2-oxoethyl)-4H-thieno[3,2-b]pyrrole-5carboxamido)cyclohexane-1-carboxylate (8)]	150 nM
CCCCCCNC(=O)C1CCC(NC(=O)c2cc3sccc3n2CC(=O)N(CC)c2cccc(C)c2)CC1 (trans isomer) [4-(2-(Ethyl(m-tolyl)amino)-2-oxoethyl)-N-(trans-4-(hexylcarbamoyl)cyclohexyl)-4H-thieno[3,2b]pyrrole-5-carboxamide (38)]	160 nM
CCOC(=O)Cc1ccc(NC(=O)c2cc3sccc3n2CC(=O)N(CC)c2cccc(C)c2)cc1 [Ethyl 2-(4-(4-(2-(ethyl(m-tolyl)amino)-2-oxoethyl)-4H-thieno[3,2-b]pyrrole-5carboxamido)phenyl)acetate (12)]	4700 nM
CCN(C(=O)Cn1c(C(=O)N[C@H]2CC[C@H](C(=O)NCCCCCCNC(=O)c3ccc4c(c3)C3(OC4)c4ccc(O)cc4Oc4cc(O)ccc43)CC2)cc2sccc21)c1cccc(C)c1 [N-(trans-4-((6-(3',6'-dihydroxy-3-oxo-3H-spiro[isobenzofuran-1,9'-xanthene]-5(6)carboxamido)hexyl)carbamoyl)cyclohexyl)-4-(2-(ethyl(m-tolyl)amino)-2-oxoethyl)-4Hthieno[3,2-b]pyrrole-5-carboxamide (47)]	49 nM
CCN(C(=O)Cn1c(C(=O)N[C@H]2CC[C@H](C(=O)OC)CC2)cc2sccc21)c1ccccc1C [Methyl trans-4-(4-(2-(ethyl(o-tolyl)amino)-2-oxoethyl)-4H-thieno[3,2-b]pyrrole-5carboxamido)cyclohexane-1-carboxylate (19)]	690 nM
CCN(C(=O)Cn1c(C(=O)N[C@H]2CC[C@H](C(=O)OC)CC2)cc2ccc(OC)cc21)c1cccc(C)c1 [Methyl trans-4-(1-(2-(ethyl(m-tolyl)amino)-2-oxoethyl)-6-methoxy-1H-indole-2carboxamido)cyclohexane-1-carboxylate (30)]	3400 nM
CCN(C(=O)Cn1c(C(=O)N[C@H]2CC[C@H](C(=O)OC)CC2)cc2sccc21)c1cccc(C(C)C)c1 (mixture of isomers) [Methyl trans-4-(4-(2-(ethyl(3-isopropylphenyl)amino)-2-oxoethyl)-4H-thieno[3,2-b]pyrrole-5carboxamido)cyclohexane-1-carboxylate (23)]	130 nM
CCc1cccc(N(CC)C(=O)Cn2c(C(=O)N[C@H]3CC[C@H](C(=O)OC)CC3)cc3ccccc32)c1 [Methyl trans-4-(1-(2-(ethyl(3-ethylphenyl)amino)-2-oxoethyl)-1H-indole-2carboxamido)cyclohexane-1-carboxylate (33)]	5.4 nM
CCN(C(=O)Cn1c(C(=O)NC2CCC(C(=O)NCCO)CC2)cc2sccc21)c1cccc(C)c1 (stereo not drawn) [4-(2-(Ethyl(m-tolyl)amino)-2-oxoethyl)-N-(trans-4-((2-hydroxyethyl)carbamoyl)cyclohexyl)-4Hthieno[3,2-b]pyrrole-5-carboxamide (35)]	830 nM
COC(=O)[C@H]1CC[C@H](NC(=O)c2cc3sccc3n2CC(=O)N2CCCc3cc(C)ccc32)CC1 [Methyl trans-4-(4-(2-(6-methyl-3,4-dihydroquinolin-1(2H)-yl)-2-oxoethyl)-4Hthieno[3,2-b]pyrrole-5-carboxamido)cyclohexane-1-carboxylate (21)]	20200 nM
CCCCCCN(C(=O)Cn1c(C(=O)NC2CCCCC2)cc2sccc21)c1cccc(C)c1 [N-cyclohexyl-4-(2-(hexyl(m-tolyl)amino)-2-oxoethyl)-4H-thieno[3,2-b]pyrrole-5-carboxamide (16)]	5600 nM
